Assay results from patent publication US20250197394A1, “ANTIBACTERIALS BASED ON MONOCYCLIC FRAGMENTS COUPLED TO AMINOPIPERIDINE NAPHTHYRIDINE SCAFFOLD” (UNIVERZA V LJUBLJANI, priority 2019, published 2025).
pIC50: −log10 of the molar value. In brackets after ≈: the same amount, converted by molar mass.

Assays:
[1] = biological target: Staphylococcus aureus DNA gyrase (Staphylococcus aureus, UniProt P0A0K8+P20831); assay: biochemical
[2] = tested on: methicillin-resistant Staphylococcus pseudintermedius S-52; assay: MIC broth microdilution, MRSP S-52; type: cell-based; conditions: 20 hours of incubation
Experimental: (§1) Minimal inhibitory concentrations were determined by the broth microdilution method in 96-wells plate format following the Clinical and Laboratory Standards Institute (CLSI) guidelines given in “Methods for Dilution Antimicrobial Susceptibility Tests for Bacteria That Grow Aerobically, Approved Standard, 10th Edition, CLSI document M07-A10, Wayne, PA: Clinical and Laboratory Standards Institute, USA, 2015” and European Committee on Antimicrobial Susceptibility Testing (EUCAST) recommendations given in “The European Committee on Antimicrobial Susceptibility Testing, Breakpoint tables for interpretation of MICs and zone diameters, Version 5.0, 2015”. All exemplified compounds were tested on several Gram-positive (S. aureus, methicillin-resistant Staphylococcus aureus (MRSA), methicillin-resistant
(§2) Staphylococcus schleiferi subspecies coagulans, methicillin-resistant Staphylococcus pseudintermedius
(§3) (S-48, S-84, S-35, S-52, S-40 and S-51), Streptococcus agalactiae and Enterococcus faecalis) and Gram-negative bacteria (E. coli, Salmonella Alachua and Pseudomonas aeruginosa).
(§4) The MICs were visually determined as the lowest compound concentration inhibiting bacterial growth after 20 hours of incubation time. […] MIC values are represented in Table 2.

E. faecalis DRK 057 = assay: MIC broth microdilution, E. faecalis; type: cell-based; conditions: Enterococcus faecalis, DRK057, 20 hours of incubation
Experimental: as §1, §2, §3, §4

P. aeruginosa RDK 184 = assay: MIC broth microdilution, P. aeruginosa; type: cell-based; conditions: Pseudomonas aeruginosa, RDK184, 20 hours of incubation
Experimental: as §1, §2, §3, §4

C. jejuni RDK-135 = assay: MIC broth microdilution, C. jejuni; type: cell-based; conditions: Campylobacter jejuni, RDK135, 20 hours of incubation
Experimental: as §1, §4

HepG2 (ATCC) cell line = assay: Cytotoxicity, metabolic cell activity (CellTiter 96 AQueous One), HepG2; type: cell-based; conditions: two independent experiments; for mean percentage of metabolic activity of treated cells, HepG2 1 μM: HepG2, compound 1 μM; for mean percentage of metabolic activity of treated cells, HepG2 50 μM: HepG2, compound 50 μM
Experimental: (§5) Cytotoxicity was assessed in assay measuring metabolic cell activity performed on HepG2 (ATCC) and HUVEC (ATCC) cell lines according to the protocol of CellTiter 96® AQueous One Solution Cell Proliferation Assay 2018, Promega, USA, 2001. The method involved absorbance measurements after the treatment of cells with compounds at concentrations 1 μM and 50 μM.
(§6) The results are given as the mean percentage of metabolic activity of treated cells from two independent experiments and are represented in Table 3.

HUVEC (ATCC) cell line = assay: Cytotoxicity, metabolic cell activity (CellTiter 96 AQueous One), HUVEC; type: cell-based; conditions: two independent experiments; for mean percentage of metabolic activity of treated cells, HUVEC 1 μM: compound 1 μM; for mean percentage of metabolic activity of treated cells, HUVEC 50 μM: compound 50 μM
Experimental: as §5, §6

[3] = tested on: methicillin-resistant Staphylococcus pseudintermedius S-51; assay: MIC broth microdilution, MRSP S-51; type: cell-based; conditions: 20 hours of incubation
Experimental: as §1, §2, §3, §4

[4] = biological target: T1, Escherichia coli DNA gyrase (Escherichia coli, UniProt P0AES4+P0AES6); assay: Gyrase Supercoiling High Throughput Plate assay (E. coli); type: biochemical; conditions: mean of two to four independent measurements
T1 construct: purchased Inspiralis (Norwich, UK)

[5] = tested on: methicillin-resistant Staphylococcus pseudintermedius S-35; assay: MIC broth microdilution, MRSP S-35; type: cell-based; conditions: 20 hours of incubation
Experimental: as §1, §2, §3, §4

[6] = tested on: methicillin-resistant Staphylococcus pseudintermedius S-40; assay: MIC broth microdilution, MRSP S-40; type: cell-based; conditions: 20 hours of incubation
Experimental: as §1, §2, §3, §4

[7] = tested on: methicillin-resistant Staphylococcus pseudintermedius S-84; assay: MIC broth microdilution, MRSP S-84; type: cell-based; conditions: 20 hours of incubation
Experimental: as §1, §2, §3, §4

[8] = tested on: methicillin-resistant Staphylococcus schleiferi subspecies coagulans; assay: MIC broth microdilution, MRSS; type: cell-based; conditions: 20 hours of incubation
Experimental: as §1, §2, §3, §4

[9] = tested on: methicillin-resistant Staphylococcus aureus (MRSA); assay: MIC broth microdilution, MRSA; type: cell-based; conditions: 20 hours of incubation
Experimental: as §1, §2, §3, §4

[10] = tested on: methicillin-resistant Staphylococcus pseudintermedius S-48; assay: MIC broth microdilution, MRSP S-48; type: cell-based; conditions: 20 hours of incubation
Experimental: as §1, §2, §3, §4

S. aureus = assay: MIC broth microdilution, S. aureus; type: cell-based; conditions: Staphylococcus aureus, 20 hours of incubation
Experimental: as §1, §2, §3, §4

T1 sequence (P0AES4 whole entry, one chain of several): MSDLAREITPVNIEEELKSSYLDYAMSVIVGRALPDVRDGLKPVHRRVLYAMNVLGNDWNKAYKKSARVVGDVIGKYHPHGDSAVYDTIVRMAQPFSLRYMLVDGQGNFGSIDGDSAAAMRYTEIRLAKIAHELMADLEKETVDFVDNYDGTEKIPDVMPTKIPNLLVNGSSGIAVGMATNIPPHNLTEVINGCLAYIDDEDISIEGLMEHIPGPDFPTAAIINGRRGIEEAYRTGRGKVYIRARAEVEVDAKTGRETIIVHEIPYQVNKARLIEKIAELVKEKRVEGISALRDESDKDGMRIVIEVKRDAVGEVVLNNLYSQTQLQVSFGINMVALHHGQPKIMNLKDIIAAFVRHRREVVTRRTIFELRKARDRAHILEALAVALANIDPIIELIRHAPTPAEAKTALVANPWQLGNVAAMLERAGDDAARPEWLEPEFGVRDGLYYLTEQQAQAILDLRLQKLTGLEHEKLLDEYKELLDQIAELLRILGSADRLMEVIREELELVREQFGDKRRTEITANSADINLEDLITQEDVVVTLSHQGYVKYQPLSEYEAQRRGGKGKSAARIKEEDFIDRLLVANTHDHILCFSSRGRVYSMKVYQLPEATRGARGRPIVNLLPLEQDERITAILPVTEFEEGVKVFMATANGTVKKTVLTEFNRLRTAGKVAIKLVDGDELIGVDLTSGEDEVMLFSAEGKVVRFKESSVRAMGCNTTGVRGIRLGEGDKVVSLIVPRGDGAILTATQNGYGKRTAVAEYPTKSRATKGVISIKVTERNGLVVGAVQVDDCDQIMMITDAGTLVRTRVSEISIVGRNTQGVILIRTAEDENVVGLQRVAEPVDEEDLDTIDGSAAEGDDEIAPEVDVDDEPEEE
Chain of Staphylococcus aureus DNA gyrase (P20831 whole entry): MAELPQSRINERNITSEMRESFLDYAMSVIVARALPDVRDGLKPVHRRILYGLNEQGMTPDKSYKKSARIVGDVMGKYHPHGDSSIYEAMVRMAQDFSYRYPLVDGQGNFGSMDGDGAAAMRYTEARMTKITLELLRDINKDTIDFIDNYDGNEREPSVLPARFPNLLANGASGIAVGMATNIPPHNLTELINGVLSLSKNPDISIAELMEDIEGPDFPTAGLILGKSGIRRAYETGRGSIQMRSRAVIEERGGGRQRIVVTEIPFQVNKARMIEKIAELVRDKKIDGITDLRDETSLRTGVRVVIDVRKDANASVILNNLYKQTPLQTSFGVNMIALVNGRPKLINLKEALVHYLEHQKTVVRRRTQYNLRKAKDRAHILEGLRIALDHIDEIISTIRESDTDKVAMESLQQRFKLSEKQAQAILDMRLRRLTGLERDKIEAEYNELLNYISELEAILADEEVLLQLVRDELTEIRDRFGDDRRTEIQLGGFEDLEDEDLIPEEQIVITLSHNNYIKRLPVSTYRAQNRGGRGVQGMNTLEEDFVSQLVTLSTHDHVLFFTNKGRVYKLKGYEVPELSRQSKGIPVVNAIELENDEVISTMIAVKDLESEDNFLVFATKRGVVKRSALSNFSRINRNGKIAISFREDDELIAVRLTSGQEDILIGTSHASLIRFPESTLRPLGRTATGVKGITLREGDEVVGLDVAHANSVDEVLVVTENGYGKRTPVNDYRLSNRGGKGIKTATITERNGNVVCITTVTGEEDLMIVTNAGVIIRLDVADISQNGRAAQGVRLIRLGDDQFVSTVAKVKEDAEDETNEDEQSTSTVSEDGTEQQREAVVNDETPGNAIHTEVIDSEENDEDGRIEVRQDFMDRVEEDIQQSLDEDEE
Chain of Staphylococcus aureus DNA gyrase (P0A0K8 whole entry): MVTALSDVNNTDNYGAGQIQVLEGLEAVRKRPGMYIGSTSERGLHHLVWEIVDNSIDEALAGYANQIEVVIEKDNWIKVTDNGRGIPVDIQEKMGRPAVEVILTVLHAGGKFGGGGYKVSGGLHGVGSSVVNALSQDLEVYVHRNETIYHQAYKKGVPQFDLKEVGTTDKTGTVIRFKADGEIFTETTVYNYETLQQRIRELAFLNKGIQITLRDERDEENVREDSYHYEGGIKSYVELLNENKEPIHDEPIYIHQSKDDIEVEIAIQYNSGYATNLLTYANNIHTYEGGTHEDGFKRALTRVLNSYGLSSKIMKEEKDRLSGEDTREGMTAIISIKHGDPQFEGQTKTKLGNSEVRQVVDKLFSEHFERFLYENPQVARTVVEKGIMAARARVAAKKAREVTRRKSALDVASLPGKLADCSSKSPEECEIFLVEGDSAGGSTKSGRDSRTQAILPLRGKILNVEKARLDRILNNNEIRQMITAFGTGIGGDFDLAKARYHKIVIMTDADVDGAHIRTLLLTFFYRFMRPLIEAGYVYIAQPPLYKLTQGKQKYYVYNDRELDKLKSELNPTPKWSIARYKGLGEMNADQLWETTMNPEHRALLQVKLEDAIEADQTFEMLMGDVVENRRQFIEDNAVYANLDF

| Structure (SMILES) | pIC50 [1] | MIC [2] [µg/mL] | MIC (E. faecalis DRK 057) [µg/mL] | MIC (P. aeruginosa RDK 184) [µg/mL] | MIC (C. jejuni RDK-135) [µg/mL] | mean percentage of metabolic activity of treated cells, HepG2 1 μM (HepG2 (ATCC) cell line) [%] | mean percentage of metabolic activity of treated cells, HepG2 50 μM (HepG2 (ATCC) cell line) [%] | mean percentage of metabolic activity of treated cells, HUVEC 1 μM (HUVEC (ATCC) cell line) [%] | mean percentage of metabolic activity of treated cells, HUVEC 50 μM (HUVEC (ATCC) cell line) [%] | MIC [3] [µg/mL] | pIC50 [4] | MIC [5] [µg/mL] | MIC [6] [µg/mL] | MIC [7] [µg/mL] | MIC [8] [µg/mL] | MIC [9] [µg/mL] | MIC [10] [µg/mL] | MIC (S. aureus) [µg/mL] |
| --- | --- | --- | --- | --- | --- | --- | --- | --- | --- | --- | --- | --- | --- | --- | --- | --- | --- | --- |
| COc1ccc2nccc(CCN3CCC(NCc4ccc(N(C)C)cc4)CC3)c2n1 [Compound C4, N-(4-(dimethylamino)benzyl)-1-(2-(6-methoxy-1,5-naphthyridin-4-yl)ethyl)piperidin-4-amine] | 7.17 | 0.5 (≈ 1.19 µM) | 1 (≈ 2.38 µM) | > 128 | 4 (≈ 9.53 µM) | 102.5 ± 2.3 | 0.8 ± 1.0 | 105.9 ± 0.9 | 0.1 ± 0.6 | 0.25 (≈ 0.596 µM) | 4.92 | 0.25 (≈ 0.596 µM) | 0.125 (≈ 0.298 µM) | 0.125 (≈ 0.298 µM) | 0.015 (≈ 0.0358 µM) | 0.025 (≈ 0.0596 µM) | 0.25 (≈ 0.596 µM) | – |
| COc1ccc2nccc(CCN3CCC(NCc4ccc(Cl)cc4)CC3)c2n1 [Compound C6, N-(4-chlorobenzyl)-1-(2-(6-methoxy-1,5-naphthyridin-4-yl)ethyl)piperidin-4-amine] | – | 0.5 (≈ 1.22 µM) | 1 (≈ 2.43 µM) | > 128 | 2 (≈ 4.87 µM) | 84.5 ± 11.1 | 0.9 ± 0.1 | 86.1 ± 17.1 | −0.6 ± 0.4 | 0.25 (≈ 0.608 µM) | – | 0.25 (≈ 0.608 µM) | 0.25 (≈ 0.608 µM) | 0.25 (≈ 0.608 µM) | ≤ 0.0078 | – | 0.25 (≈ 0.608 µM) | 0.125 (≈ 0.304 µM) |
| COc1ccc2nccc(CCN3CCC(NCc4ccc(I)cc4)CC3)c2n1 [Compound C8, N-(4-iodobenzyl)-1-(2-(6-methoxy-1,5-naphthyridin-4-yl)ethyl)piperidin-4-amine] | 7.96 | 0.062 (≈ 0.123 µM) | 1 (≈ 1.99 µM) | 32 (≈ 63.7 µM) | 0.015 (≈ 0.0299 µM) | 102.6 ± 2.3 | 0.5 ± 0.3 | 108.0 ± 6.6 | −0.3 ± 0.5 | 0.0078 (≈ 0.0155 µM) | – | 0.15 (≈ 0.299 µM) | ≤ 0.0078 | 0.015 (≈ 0.0299 µM) | 0.002 (≈ 0.00398 µM) | 0.015 (≈ 0.0299 µM) | 0.015 (≈ 0.0299 µM) | – |
| COc1ccc2nccc(CCN3CCC(NCc4ccc(OC(F)F)c(OC)c4)CC3)c2n1 [Compound C9, N-(4-(difluoromethoxy)-3-methoxybenzyl)-1-(2-(6-methoxy-1,5-naphthyridin-4-yl)ethyl)piperidin-4-amine] | 6.46 | 4 (≈ 8.46 µM) | 16 (≈ 33.9 µM) | > 128 | 2 (≈ 4.23 µM) | 89.7 ± 3.8 | −0.3 ± 2.1 | 89.6 ± 3.8 | 0.2 ± 1.0 | 2 (≈ 4.23 µM) | 5.41 | 2 (≈ 4.23 µM) | 2 (≈ 4.23 µM) | 2 (≈ 4.23 µM) | 0.125 (≈ 0.265 µM) | – | 2 (≈ 4.23 µM) | – |
| COc1ccc2nccc(CCN3CCC(NCc4ccc(OC(F)F)c(O)c4)CC3)c2n1 [Compound C10, 2-(difluoromethoxy)-5-((1-(2-(6-methoxy-1,5-naphthyridin-4-yl)ethyl)piperidin-4-ylamino)methyl)phenol] | 6.48 | 2 (≈ 4.36 µM) | 4 (≈ 8.72 µM) | > 128 | 0.016 (≈ 0.0349 µM) | 100.5 ± 4.8 | −0.4 ± 1.6 | 96.4 ± 9.1 | 2.5 ± 0.3 | 0.25 (≈ 0.545 µM) | 5.36 | 0.5 (≈ 1.09 µM) | 0.25 (≈ 0.545 µM) | 0.25 (≈ 0.545 µM) | 0.25 (≈ 0.545 µM) | – | 0.25 (≈ 0.545 µM) | – |
| C=CCn1cc(CNC2CCN(CCc3ccnc4ccc(OC)nc34)CC2)cn1 [Compound C11, N-((1-allyl-^1H-pyrazol-4-yl)methyl)-1-(2-(6-methoxy-1,5-naphthyridin-4-yl)ethyl)piperidin-4-amine] | 5.96 | 4 (≈ 9.84 µM) | 8 (≈ 19.7 µM) | > 128 | 8 (≈ 19.7 µM) | 108.5 ± 6.3 | 77.0 ± 2.4 | 88.6 ± 21.2 | 84.2 ± 19.5 | 2 (≈ 4.92 µM) | 4.78 | 2 (≈ 4.92 µM) | 1 (≈ 2.46 µM) | < 1 | 0.125 (≈ 0.307 µM) | 2 (≈ 4.92 µM) | 2 (≈ 4.92 µM) | – |
